The test deals with recombinant human HPK1 (Homo sapiens (Human), UniProt Q92918). Kind of test: HPK1 kinase assay (ADP-Glo). Format: biochemical. The settings on record: 25 μM ATP, MBP substrate. The procedure, abridged: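 Activity was read as ADP formed, detected by ADP-Glo luminescence after the reaction of 5 ng recombinant human HPK1 with MBP and ATP (stocks 0.5 μg/μl and 25 μM) for 40 min at 30 °C. Buffer was Tris pH 7.5 with MgCl2, BSA and DTT, with compound in 0.5% DMSO. IC50 came from inhibition curves.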
recombinant human HPK1, sequence (Q92918 whole entry): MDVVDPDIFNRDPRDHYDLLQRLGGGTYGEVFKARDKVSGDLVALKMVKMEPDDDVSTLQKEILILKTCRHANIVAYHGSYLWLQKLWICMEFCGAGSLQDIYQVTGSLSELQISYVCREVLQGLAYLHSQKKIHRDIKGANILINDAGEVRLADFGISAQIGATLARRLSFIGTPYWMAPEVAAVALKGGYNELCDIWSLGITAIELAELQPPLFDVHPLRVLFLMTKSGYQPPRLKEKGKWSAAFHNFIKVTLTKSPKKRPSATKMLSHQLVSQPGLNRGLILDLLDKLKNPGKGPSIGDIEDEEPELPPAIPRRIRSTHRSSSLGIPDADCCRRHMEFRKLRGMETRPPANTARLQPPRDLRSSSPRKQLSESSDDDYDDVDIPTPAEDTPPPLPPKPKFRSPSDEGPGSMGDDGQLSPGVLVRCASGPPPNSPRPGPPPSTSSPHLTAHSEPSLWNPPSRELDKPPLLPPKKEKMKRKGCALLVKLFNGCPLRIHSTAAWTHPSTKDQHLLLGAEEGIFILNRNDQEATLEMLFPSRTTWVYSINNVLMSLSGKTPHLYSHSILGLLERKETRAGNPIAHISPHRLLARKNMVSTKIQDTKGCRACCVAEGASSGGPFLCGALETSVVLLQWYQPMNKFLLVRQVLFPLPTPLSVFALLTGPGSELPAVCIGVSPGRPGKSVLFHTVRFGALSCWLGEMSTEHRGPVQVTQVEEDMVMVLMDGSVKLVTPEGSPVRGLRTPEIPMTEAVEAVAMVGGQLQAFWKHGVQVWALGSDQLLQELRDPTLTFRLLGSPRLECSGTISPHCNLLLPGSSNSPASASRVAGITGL
A general note: In ADP-Glo the light output rises with the ADP produced.
In general, IC50 refers to the concentration needed to halve the response being measured. With `CC(=O)c1ccc2[nH]ncc2c1-c1ccn2nc(NC(=O)[C@@H]3C[C@@H]3F)cc2c1` [Example 453, (1S,2S)-N-(5-(5-acetyl-1H-indazol-4-yl)pyrazolo[1,5-a]pyridin-2-yl)-2-fluorocyclopropane-1-carboxamide], the IC50 lay within 501 to 1000 nM.
On to `CC(=O)NC(C)c1c(F)c(Cl)c(-c2ccc3nc(NC(=O)[C@@H]4C[C@@H]4F)cn3c2)c2cn[nH]c12` (stereo partly drawn) [Example 417, (1S,2S)-N-(6-(7-(1-acetamidoethyl)-5-chloro-6-fluoro-1H-indazol-4-yl)imidazo[1,2-a]pyridin-2-yl)-2-fluorocyclopropane-1-carboxamide], for which the half-maximal inhibitory concentration (IC50) is less than 100 nM.
Regarding `Cc1c(F)c(Cl)c(-c2ccc3nc(NC(=O)[C@@H]4C[C@@H]4F)sc3c2)c2cn[nH]c12` [Example 57, (1S,2S)-N-(6-(5-chloro-6-fluoro-7-methyl-1H-indazol-4-yl)benzo[d]thiazol-2-yl)-2-fluorocyclopropane-1-carboxamide], the IC50 was less than 100 nM.
With `CSc1n[nH]c2cc(F)c(C)c(-c3ccn4nc(NC(=O)[C@@H]5C[C@@H]5F)cc4c3)c12` [Example 471, (1S,2S)-2-fluoro-N-(5-(6-fluoro-5-methyl-3-(methylthio)-1H-indazol-4-yl)pyrazolo[1,5-a]pyridin-2-yl)cyclopropane-1-carboxamide] the figure was 101 to 500 nM; with `C=Cc1ccc2[nH]ncc2c1-c1ccc2nc(NC(=O)[C@@H]3C[C@@H]3F)sc2c1` [Example 35, (1S,2S)-2-fluoro-N-(6-(5-vinyl-1H-indazol-4-yl)benzo[d]thiazol-2-yl)cyclopropane-1-carboxamide], 101 to 500 nM.
Turning to `CC(Nc1c(F)c(Cl)c(-c2ccc3nc(NC(=O)[C@@H]4C[C@@H]4F)cn3c2)c2cn[nH]c12)C(F)F` (stereo partly drawn) [Example 425, (1S,2S)-N-(6-(5-chloro-7-((1,1-difluoropropan-2-yl)amino)-6-fluoro-1H-indazol-4-yl)imidazo[1,2-a]pyridin-2-yl)-2-fluorocyclopropane-1-carboxamide], the IC50 is less than 100 nM.
For `CC(Nc1c(F)c(Cl)c(-c2ccn3nc(NC(=O)[C@@H]4C[C@@H]4F)cc3c2)c2cn[nH]c12)C1CC1` (stereo partly drawn) [Example 653, (1S,2S)-N-(5-(5-chloro-7-((1-cyclopropylethyl)amino)-6-fluoro-1H-indazol-4-yl)pyrazolo[1,5-a]pyridin-2-yl)-2-fluorocyclopropane-1-carboxamide] the value was less than 100 nM.
In the case of `CNNc1c(F)c(Cl)c(-c2ccc3nc(NC(=O)[C@@H]4C[C@@H]4F)sc3c2)c2cn[nH]c12` [Example 115, (1S,2S)-N-(6-(5-chloro-6-fluoro-7-(2-methylhydrazineyl)-1H-indazol-4-yl)benzo[d]thiazol-2-yl)-2-fluorocyclopropane-1-carboxamide], the IC50 was less than 100 nM.
On to `O=C(Nc1cn2cc(-c3c(CO)ccc4[nH]ncc34)ccc2n1)C1CC1` [Example 233, N-(6-(5-(hydroxymethyl)-1H-indazol-4-yl)imidazo[1,2-a]pyridin-2-yl)cyclopropanecarboxamide], for which the IC50 is 501 to 1000 nM.
With `C[C@@H](c1c(F)c(Cl)c(-c2ccc3nc(NC(=O)[C@@H]4C[C@@H]4F)cn3c2)c2cn[nH]c12)n1cnnn1` [Example 414, (1S,2S)-N-(6-(7-((S)-1-(1H-tetrazol-1-yl)ethyl)-5-chloro-6-fluoro-1H-indazol-4-yl)imidazo[1,2-a]pyridin-2-yl)-2-fluorocyclopropane-1-carboxamide] the figure was less than 100 nM; with `CSc1ccc2[nH]ncc2c1-c1ccn2nc(NC(=O)[C@@H]3C[C@@H]3F)cc2c1` [Example 463, (1S,2S)-2-fluoro-N-(5-(5-(methylthio)-1H-indazol-4-yl)pyrazolo[1,5-a]pyridin-2-yl)cyclopropane-1-carboxamide], less than 100 nM.
In the case of `O=C(Nc1cc2cc(-c3c(Cl)c(F)c(Nc4ncccn4)c4[nH]ncc34)ccn2n1)[C@@H]1C[C@@H]1F` [Example 601, (1S,2S)-N-(5-(5-chloro-6-fluoro-7-(pyrimidin-2-ylamino)-1H-indazol-4-yl)pyrazolo[1,5-a]pyridin-2-yl)-2-fluorocyclopropane-1-carboxamide], the IC50 was less than 100 nM.
With `C[C@@H]1[C@H](C(=O)Nc2cc3cc(-c4c(Cl)c(F)c(N(C)C)c5[nH]ncc45)ccn3n2)[C@H]1c1cnn(C)c1` [Example 648, (1S,2S,3S)-N-(5-(5-chloro-7-(dimethylamino)-6-fluoro-1H-indazol-4-yl)pyrazolo[1,5-a]pyridin-2-yl)-2-methyl-3-(1-methyl-1H-pyrazol-4-yl)cyclopropane-1-carboxamide] the figure was less than 100 nM.
Consider `Cc1c(F)c(C(=O)O)c2[nH]ncc2c1-c1ccc2nc(NC(=O)[C@@H]3C[C@@H]3F)sc2c1` [Example 124, 6-fluoro-4-(2-((1S,2S)-2-fluorocyclopropane-1-carboxamido)benzo[d]thiazol-6-yl)-5-methyl-1H-indazole-7-carboxylic acid], for which the IC50 was greater than 1000 nM.
With `O=C(Nc1cc2cc(-c3c(Cl)c(F)c(CF)c4[nH]ncc34)ccn2n1)[C@@H]1C[C@@H]1F` [Example 634, (1S,2S)-N-(5-(5-chloro-6-fluoro-7-(fluoromethyl)-1H-indazol-4-yl)pyrazolo[1,5-a]pyridin-2-yl)-2-fluorocyclopropane-1-carboxamide] the figure was less than 100 nM; with `CCc1c(F)cc2[nH]ncc2c1-c1ccc2nc(NC(=O)[C@@H]3C[C@@H]3F)cn2c1` [Example 294, (1S,2S)-N-(6-(5-ethyl-6-fluoro-1H-indazol-4-yl)imidazo[1,2-a]pyridin-2-yl)-2-fluorocyclopropane-1-carboxamide], less than 100 nM.
For the compound `O=C(Nc1cn2cc(-c3c(C4CC4)c(F)cc4[nH]ncc34)ccc2n1)C1CC1` [Example 241, N-(6-(5-cyclopropyl-6-fluoro-1H-indazol-4-yl)imidazo[1,2-a]pyridin-2-yl)cyclopropanecarboxamide], the IC50 was greater than 1000 nM.
For `O=C(Nc1cc2cc(-c3c(Cl)c(F)c(OC(F)(F)F)c4[nH]ncc34)ccn2n1)[C@@H]1C[C@@H]1F` [Example 607, (1S,2S)-N-(5-(5-chloro-6-fluoro-7-(trifluoromethoxy)-1H-indazol-4-yl)pyrazolo[1,5-a]pyridin-2-yl)-2-fluorocyclopropane-1-carboxamide] the value was less than 100 nM.
For `CCc1c(F)c(SCC(=O)N(C)C)c2[nH]ncc2c1-c1ccc2nc(NC(=O)[C@@H]3C[C@@H]3F)sc2n1` [Example 166, (1S,2S)-N-(5-(7-((2-(dimethylamino)-2-oxoethyl)thio)-5-ethyl-6-fluoro-1H-indazol-4-yl)thiazolo[5,4-b]pyridin-2-yl)-2-fluorocyclopropane-1-carboxamide] the value was less than 100 nM; for `Cc1c(F)cc2[nH]nc(C)c2c1-c1ccn2nc(NC(=O)[C@@H]3C[C@@H]3F)cc2c1` [Example 470, (1S,2S)-2-fluoro-N-(5-(6-fluoro-3,5-dimethyl-1H-indazol-4-yl)pyrazolo[1,5-a]pyridin-2-yl)cyclopropane-1-carboxamide], 101 to 500 nM.
Turning to `O=C(Nc1nc2ccc(-c3cccc4[nH]ncc34)cc2s1)C1CC1` [Example 14, N-(6-(1H-indazol-4-yl)benzo[d]thiazol-2-yl)cyclopropanecarboxamide], the IC50 is greater than 1000 nM.
Take `CC(NC(=O)C(F)(F)F)c1c(F)c(Cl)c(-c2ccc3nc(NC(=O)[C@@H]4C[C@@H]4F)cn3c2)c2cn[nH]c12` (stereo partly drawn) [Example 428, (1S,2S)-N-(6-(5-chloro-6-fluoro-7-(1-(2,2,2-trifluoroacetamido)ethyl)-1H-indazol-4-yl)imidazo[1,2-a]pyridin-2-yl)-2-fluorocyclopropane-1-carboxamide]: the IC50 is less than 100 nM.
On to `Cc1c(F)c(Br)c2[nH]ncc2c1-c1ccn2nc(NC(=O)[C@@H]3C[C@@H]3F)cc2c1` [Example 487, (1S,2S)-N-(5-(7-bromo-6-fluoro-5-methyl-1H-indazol-4-yl)pyrazolo[1,5-a]pyridin-2-yl)-2-fluorocyclopropane-1-carboxamide], for which the 50% inhibitory concentration (IC50) is less than 100 nM.
With `CNC(=O)NCCOc1c(F)c(C)c(-c2ccn3nc(NC(=O)[C@@H]4C[C@@H]4F)cc3c2)c2cn[nH]c12` [Example 545, (1S,2S)-2-fluoro-N-(5-(6-fluoro-5-methyl-7-(2-(3-methylureido)ethoxy)-1H-indazol-4-yl)pyrazolo[1,5-a]pyridin-2-yl)cyclopropane-1-carboxamide] the figure was less than 100 nM; with `CCOc1c(F)c(SC)c2[nH]ncc2c1-c1ccn2nc(NC(=O)[C@@H]3C[C@@H]3F)cc2c1` [Example 606, (1S,2S)-N-(5-(5-ethoxy-6-fluoro-7-(methylthio)-1H-indazol-4-yl)pyrazolo[1,5-a]pyridin-2-yl)-2-fluorocyclopropane-1-carboxamide], less than 100 nM.
With `Cc1c(F)c(OCCNC(N)=O)c2[nH]ncc2c1-c1ccn2nc(NC(=O)[C@@H]3C[C@@H]3F)cc2c1` [Example 544, (1S,2S)-2-fluoro-N-(5-(6-fluoro-5-methyl-7-(2-ureidoethoxy)-1H-indazol-4-yl)pyrazolo[1,5-a]pyridin-2-yl)cyclopropane-1-carboxamide] the figure was less than 100 nM; with `COC(=O)c1c(F)c(C)c(-c2ccn3nc(NC(=O)[C@@H]4C[C@@H]4F)cc3c2)c2cn[nH]c12` [Example 548, methyl 6-fluoro-4-(2-((1S,2S)-2-fluorocyclopropane-1-carboxamido)pyrazolo[1,5-a]pyridin-5-yl)-5-methyl-1H-indazole-7-carboxylate], less than 100 nM; with `Cc1c(F)c(C(F)F)c2[nH]ncc2c1-c1ccc2nc(NC(=O)[C@@H]3C[C@@H]3F)sc2n1` [Example 217, (1S,2S)-N-(5-(7-(difluoromethyl)-6-fluoro-5-methyl-1H-indazol-4-yl)thiazolo[5,4-b]pyridin-2-yl)-2-fluorocyclopropane-1-carboxamide], less than 100 nM.

The values are drawn from patent US11649255B2, “Indazoles as hematopoietic progenitor kinase 1 (HPK1) inhibitors and methods using same” (1st Biotherapeutics, Inc., priority 2020, dated 2023).
